In patent US20220000911A1, “COMBINATION OF GOLD COMPLEXES WITH OLAPARIB OR OTHER PARP1/2 INHIBITORS FOR USE IN THE TREATMENT OF CANCER RESISTANT TO SAID PARP1/2 INHIBITORS” (Varsity Pharmaceuticals Limited, priority 2020, published 2022):

What was measured:
Format in all cases: cell-based
[1] = tested on: wildtype A2780 ovarian cancer cells; test: CellTiter Glo proliferation inhibition, wild-type A2780 cells
Method: The A2780 cell line is an ovarian cancer cell line that was established from an ovarian endometroid adenocarcinoma tumour. […] It is commonly used as a model to observe the effects of, and test the potency of various chemicals, methods of delivery and treatments for ovarian cancer. […] The cells were diluted with culture medium and 40 μL of cell suspension (1000 cells/well) was added into each well of a 384-well cell culture plate. The plate was covered with a lid and left at room temperature without shaking for 30 minutes. The plate was then transferred to an incubator at 37° C. and 5% CO2 and left overnight. Test compounds were dissolved at a concentration of 30 mM in DMSO to create a stock solution. 45 μL of the stock solution was transferred to a 384 pp-plate. […] The plate was then spun at room temperature at 1,000 RPM for 1 minute. 40 nL of the diluted compound was then transferred from the compound source plate into the cell plate. The cell plate was then covered with a lid and placed in an incubator at 37° C. and 5% CO2 and left for 120 hours. 72 hours after treatment with the compound detection was conducted as discussed below. CellTiter Glo® reagents were thawed and equilibrated to room temperature. The cell plate was then removed from the incubator and equilibrated at room temperature for 15 minutes. 30 μL of the CellTiter Glo® reagents were then added into each well (at 1:1 to culture medium). The contents was mixed for 2 minutes on an orbital shaker to induce cell lysis and then the plates were allowed to incubate at room temperature for 30 minutes. Luminescence was then measured on an Envision reader (Perkin Elmer). The inhibition activity was calculated using the following formula: […]

[2] = tested on: olaparib resistant A2780 ovarian cancer cells; test: CellTiter Glo proliferation inhibition, olaparib resistant A2780 cells, single agents
Method: A2780 ovarian cancer cells (wild-type “WT”) were cultured in RPMI 1640 Medium with 10% Fetal Bovine Serum (FBS).
To obtain cells resistant to olaparib, the cells were cultured in cell culture medium (RPMI 1640 Medium with 10% FBS) supplemented with 20 μM olaparib for one month in order to generate A2780 cells resistant to olaparib (“R”). After a month the cells were continuously cultured in the cell culture medium (RPMI 1640 Medium with 10% FBS) supplemented with 10 μM olaparib prior to use and for up to two months to maintain the resistance.
(§1) The cells were harvested from a flask into cell culture medium (RPMI 1640 Medium with 10% FBS) and then counted. The cells were diluted with culture medium and 40 μL of cell suspension (1000 cells/well) was added into each well of a 384-well cell culture plate. The plate was covered with a lid and left at room temperature without shaking for 30 minutes. The plate was then transferred to an incubator at 37° C. and 5% CO2 and left overnight.
Test compounds were dissolved at a concentration of 30 mM in DMSO to create a stock solution. 45 μL of the stock solution was transferred to a 384 pp-plate. […] The plate was then spun at room temperature at 1,000 RPM for 1 minute. 40 nL of the diluted compound was then transferred from the compound source plate into the cell plate. The cell plate was then covered with a lid and placed in an incubator at 37° C. and 5% CO2 and left for 120 hours. 72 hours after treatment with the compound detection was conducted as discussed below.
(§2) CellTiter Glo® reagents were thawed and equilibrated to room temperature. The cell plate was then removed from the incubator and equilibrated at room temperature for 15 minutes. 30 μL of the CellTiter Glo® reagents were then added into each well (at 1:1 to culture medium). The contents was mixed for 2 minutes on an orbital shaker to induce cell lysis and then the plates were allowed to incubate at room temperature for 30 minutes. Luminescence was then measured on an Envision reader (Perkin Elmer).
The inhibition activity was calculated using the following formula:
(§3) Inhibition (%)=100×(Lumvehicle−Lumsample)/(Lumvehicle−Lumblank),
where Lumvehicle is the luminescence of cells treated with 0.1% DMSO and Lumblank is cells in the culture medium.
The IC50 was calculated by fitting the curve using Xlfit (v5.3.1.3), equation 201: […]

[3] = tested on: olaparib resistant HCC1937 triple negative breast cancer cells; test: Proliferation inhibition of olaparib resistant HCC1937 cells, single agents
Method: as §1
Test compounds were dissolved at a concentration of 30 mM in DMSO to create a stock solution. 45 μL of the stock solution was transferred to a 384 pp-plate. A 3-fold, 10-point dilution was performed by transferring 15 μL of the compound solution into 30 μL DMSO by using TECAN (EVO200) liquid handler. The plate was then spun at room temperature at 1,000 RPM for 1 minute. 40 nL of the diluted compound was then transferred from the compound source plate into the cell plate. The cell plate was then covered with a lid and placed in an incubator at 37° C. and 5% CO2 and left for 120 hours. 72 hours after treatment with the compound detection was conducted as discussed below.
as §2, §3
The methods were as described in examples 1 and 2, except the HCC1937 cell line was used.
The HCC1937 cell line was established from a primary breast carcinoma from a patient with a germ-line BRCA1 mutation. It is an example of a triple-negative breast cancer (TNBC) cell line. Breast cancer patients routinely have the expression of estrogen receptor (ER), progesterone receptor (PR), and amplification of HER-2/Neu evaluated. […] The latter group is referred to as triple-negative breast cancer based on the lack of these three molecular markers. TNBC represents approximately 10-15% of all breast cancers and patients with TNBC have a poor outcome compared to the other subtypes of breast cancer.

[4] = concentration range 0.06 nM to 30,000 nM

O=C(c1cc(Cc2n[nH]c(=O)c3ccccc23)ccc1F)N1CCN(C(=O)C2CC2)CC1 [Olaparib, olaparib] showed an IC50 ([1]; Homo sapiens, A2780) of 3.89 µM, an inhibition at 0.00152 µM ([1]; Homo sapiens, wildtype A2780, test conc. 1.52 nM, read-out: Mean Inhibition (n = 3)) of 0.36% and an inhibition at 0.00457 µM ([1]; Homo sapiens, wildtype A2780, test conc. 4.57 nM, read-out: Mean Inhibition (n = 3)) of 1.77%. It also gave an inhibition at 0.01372 µM ([1]; Homo sapiens, wildtype A2780, test conc. 13.72 nM, read-out: Mean Inhibition (n = 3)) of 2.98%, an inhibition at 0.04115 µM ([1]; Homo sapiens, wildtype A2780, test conc. 41.15 nM, read-out: Mean Inhibition (n = 3)) of 5% and an inhibition at 0.12346 µM ([1]; Homo sapiens, wildtype A2780, test conc. 123.46 nM, read-out: Mean Inhibition (n = 3)) of 12.5%. The inhibition at 0.37037 µM ([1]; Homo sapiens, wildtype A2780, test conc. 370.37 nM, read-out: Mean Inhibition (n = 3)) was 11.9%, the inhibition at 10 µM ([1]; Homo sapiens, wildtype A2780, test conc. 10,000 nM, read-out: Mean Inhibition (n = 3)) was 62.7% and the inhibition at 30 µM ([1]; Homo sapiens, wildtype A2780, test conc. 30,000 nM, read-out: Mean Inhibition (n = 3)) was 70.8%. The “Maximum inhibition observed in wild-type A2780 cells” value [1, 4] was 72%, the “Mean Inhibition (n = 3)” value ([1]; wildtype A2780, test conc. 1,111.11 nM) was 24.63% and the “Mean Inhibition (n = 3)” value ([1]; wildtype A2780, test conc. 3,333.33 nM) was 39.88%. The IC50 ([2]; Homo sapiens, A2780) was greater than 30 µM, the inhibition at 0.00152 µM ([2]; Homo sapiens, olaparib resistant A2780, test conc. 1.52 nM, read-out: Mean Inhibition (n = 3)) was 1.01% and the inhibition at 0.00457 µM ([2]; Homo sapiens, olaparib resistant A2780, test conc. 4.57 nM, read-out: Mean Inhibition (n = 3)) was 2.74%. It also gave an inhibition at 0.01372 µM ([2]; Homo sapiens, olaparib resistant A2780, test conc. 13.72 nM, read-out: Mean Inhibition (n = 3)) of 1.78%, an inhibition at 0.04115 µM ([2]; Homo sapiens, olaparib resistant A2780, test conc. 41.15 nM, read-out: Mean Inhibition (n = 3)) of 1.43% and an inhibition at 0.12346 µM ([2]; Homo sapiens, olaparib resistant A2780, test conc. 123.46 nM, read-out: Mean Inhibition (n = 3)) of 5.53%. The inhibition at 0.37037 µM ([2]; Homo sapiens, olaparib resistant A2780, test conc. 370.37 nM, read-out: Mean Inhibition (n = 3)) was 5.11%, the inhibition at 10 µM ([2]; Homo sapiens, olaparib resistant A2780, test conc. 10,000 nM, read-out: Mean Inhibition (n = 3)) was 9.9% and the inhibition at 30 µM ([2]; Homo sapiens, olaparib resistant A2780, test conc. 30,000 nM, read-out: Mean Inhibition (n = 3)) was 16.2%. The “Maximum inhibition observed in olaparib resistant A2780 cells” value [2, 4] was 23%, the “Mean Inhibition (n = 3)” value ([2]; olaparib resistant A2780, test conc. 1,111.11 nM) was 2.24% and the “Mean Inhibition (n = 3)” value ([2]; olaparib resistant A2780, test conc. 3,333.33 nM) was 6.97%. The inhibition at 0.00152 µM ([3]; test conc. 1.52 nM, read-out: Mean Inhibition (n = 3)) was -6.55%, the inhibition at 0.00457 µM ([3]; test conc. 4.57 nM, read-out: Mean Inhibition (n = 3)) was -1.82% and the inhibition at 0.01372 µM ([3]; test conc. 13.72 nM, read-out: Mean Inhibition (n = 3)) was -3.47%. It also gave an inhibition at 0.04115 µM ([3]; test conc. 41.15 nM, read-out: Mean Inhibition (n = 3)) of -0.93%, an inhibition at 0.12346 µM ([3]; test conc. 123.46 nM, read-out: Mean Inhibition (n = 3)) of 1.32% and an inhibition at 0.37037 µM ([3]; test conc. 370.37 nM, read-out: Mean Inhibition (n = 3)) of 4.41%. For the same compound, the “Mean Inhibition (n = 3)” value ([3]; test conc. 1,111.11 nM) was 3.09%, the “Mean Inhibition (n = 3)” value ([3]; test conc. 3,333.33 nM) was 4.90% and the inhibition at 10 µM ([3]; test conc. 10,000 nM, read-out: Mean Inhibition (n = 3)) was 17%. The inhibition at 30 µM ([3]; test conc. 30,000 nM, read-out: Mean Inhibition (n = 3)) was 11.8%.
